Data from patent US9161893B2, “Use, as antidandruff agent, of (ethoxyhydroxyphenyl) alkyl ketone or ethoxyhydroxyalkylphenol compounds” (L'OREAL, priority 2011, dated 2015).

Tests used:
Malassezia globosa = experiment: Antifungal growth inhibition on MLNA agar, scored against growth control; type: cell-based; conditions: for Inhibition score Malassezia globosa: MLNA agar, at least 5 days at 30° C.
Protocol: (§1) A solution containing 2% by weight of test compound is prepared in “modified Leeming and Notman liquid (MLNA)” in the following way: 0.2048 g of test compound is weighed out into qs for 10 ml of modified Leeming and Notman liquid; solubilization is carried out by heating and the use of ultrasound. The solutions of test product are twice as concentrated as the final test concentration, in order to take into account the dilution when they are brought into contact with the Malassezia suspension. One of the previously prepared solutions at 2% is diluted to ½ in modified Leeming and Notman liquid, so as to finally obtain a test concentration of 0.5%; the other solution is used as it is (at 2%) so as to finally obtain a test concentration of 1%. The Malassezia strains are brought into contact according to the table below: [table] The mixture is stirred and deposited at the surface of the MLNA agar. It is spread, with a sterile scraper, over the entire surface before recovering the excess. It is left to incubate for at least 5 days at 30° C. The antifungal effect of the compound is evaluated via the absence of growth of the Malassezia strain tested. This inhibition is evaluated relative to the growth control. The inhibitions are scored from 0 to 3 via assessment of the density of the culture at the surface of the agar, in comparison with the growth control, in the following way: [table]

Malassezia restricta = experiment: as above; type: cell-based; conditions: for Inhibition score Malassezia restricta: MLNA agar, at least 5 days at 30° C.
Protocol: as §1

In the case of `CCOc1cc(CCC(C)=O)ccc1O` [Compound tested], the “Growth inhibition of Malassezia globosa (in words)” value (Malassezia globosa; compound at 0.5%) is reported as “weakly”, the “Growth inhibition of Malassezia globosa (in words)” value (Malassezia globosa; compound at 1%) is reported as “completely inhibits the growth” and the “Inhibition score Malassezia globosa” value (Malassezia globosa; test concentration 0.5%) is reported as 1 (25% Growth < in the control dish). The “Inhibition score Malassezia globosa” value (Malassezia globosa; test concentration 1%) was 3 (100% No growth), the “Growth inhibition of Malassezia restricta (in words)” value (Malassezia restricta; compound at 0.5%) was “very effective” and the “Growth inhibition of Malassezia restricta (in words)” value (Malassezia restricta; compound at 1%) was “completely inhibits the growth”. For the same compound, the “Inhibition score Malassezia restricta” value (Malassezia restricta; test concentration 0.5%) was 3 (100% No growth) and the “Inhibition score Malassezia restricta” value (Malassezia restricta; test concentration 1%) was 3 (100% No growth).
